This test deals with T1, recombinant human SAE enzyme (Homo sapiens, UniProt Q9UBT2).
T1 sequence (Q9UBT2 1-640): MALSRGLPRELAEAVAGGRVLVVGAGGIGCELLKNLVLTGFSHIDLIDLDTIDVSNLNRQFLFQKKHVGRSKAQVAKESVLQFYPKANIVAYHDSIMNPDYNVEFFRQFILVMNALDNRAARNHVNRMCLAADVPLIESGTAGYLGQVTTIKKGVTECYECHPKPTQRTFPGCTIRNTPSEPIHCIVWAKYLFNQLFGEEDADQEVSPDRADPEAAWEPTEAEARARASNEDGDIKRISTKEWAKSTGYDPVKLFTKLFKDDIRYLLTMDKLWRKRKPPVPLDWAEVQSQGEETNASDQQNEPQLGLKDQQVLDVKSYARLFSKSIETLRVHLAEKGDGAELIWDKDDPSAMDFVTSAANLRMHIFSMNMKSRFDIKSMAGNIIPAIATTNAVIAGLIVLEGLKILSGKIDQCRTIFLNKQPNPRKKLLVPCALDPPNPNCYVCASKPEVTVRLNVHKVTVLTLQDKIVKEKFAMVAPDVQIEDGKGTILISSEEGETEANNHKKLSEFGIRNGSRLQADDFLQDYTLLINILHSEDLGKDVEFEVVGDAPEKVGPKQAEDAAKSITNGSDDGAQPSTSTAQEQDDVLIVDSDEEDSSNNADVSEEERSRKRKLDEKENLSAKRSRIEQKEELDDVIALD
T1 sequence (Q9UBE0 1-346 partner): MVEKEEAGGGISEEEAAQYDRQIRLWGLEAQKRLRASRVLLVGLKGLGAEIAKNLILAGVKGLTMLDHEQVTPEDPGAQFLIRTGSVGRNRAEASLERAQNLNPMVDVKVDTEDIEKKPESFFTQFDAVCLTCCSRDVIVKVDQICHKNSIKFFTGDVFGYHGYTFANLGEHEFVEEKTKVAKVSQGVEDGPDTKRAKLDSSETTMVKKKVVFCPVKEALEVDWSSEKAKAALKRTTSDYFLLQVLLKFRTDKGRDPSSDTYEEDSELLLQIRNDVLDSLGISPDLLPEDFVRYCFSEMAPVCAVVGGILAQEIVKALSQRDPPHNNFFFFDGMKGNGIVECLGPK
Description: SAE HTRF Enzyme Assay. Type of test: biochemical. The settings on record: for pIC50: class symbols A-C; for inhibition at 0.111 µM: compound concentration 0.111 μM, read-out: Percent Inhibition. The method in brief: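 Reaction with 0.11 nM recombinant human SAE, 0.5 μM ATP, 0.01 μM Ubc9-GST, 0.125 μM Sumo-Flag in HEPES pH 7.5, MgCl2, GSH, BSA, 105 min at 24 °C. Stopped with EDTA/KF buffer carrying Eu-anti-Flag and anti-GST-APC; HTRF read after 2 h; % inhibition or IC50.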
(In general: In TR-FRET formats the signal depends on donor and acceptor labels being close together.)

pIC50: −log10 of the molar value.

By pIC50 is commonly meant −log10 of the IC50, conventionally taken in molar units. The term inhibition denotes the relative decrease from the control value, in per cent. Regarding `NS(=O)(=O)OC[C@H]1C[C@@H](Nc2ccncc2C(=O)c2ccn(Cc3cccc(OC(F)(F)F)c3)c2)C[C@@H]1O` [Compound I-83, [(1R,2S,4R)-2-Hydroxy-4-{[3-({1-[3-(trifluoromethoxy)benzyl]-1H-pyrrol-3-yl}carbonyl)pyridin-4-yl]amino}cyclopentyl]methyl sulfamate], the pIC50 was 7.00 to 8.00 and the inhibition at 0.111 µM turned out to be 88%.

As to `CC#Cc1cccc(Cn2ccc(C(=O)c3cncnc3N[C@@H]3C[C@H](COS(N)(=O)=O)[C@@H](O)C3)n2)c1` [Compound I-84, [(1R,2S,4R)-2-hydroxy-4-{[5-({1-[3-(prop-1-yn-1-yl)benzyl]-1H-pyrazol-3-yl}carbonyl)pyrimidin-4-yl]amino}cyclopentyl]methyl sulfamate], the pIC50 was > 8.00 and the inhibition at 0.111 µM was 95%.

Turning to `C#Cc1cccc(Cn2ccc(C(=O)c3cncnc3N[C@@H]3C[C@H](COS(N)(=O)=O)[C@@H](O)C3)n2)c1` [Compound I-85, {(1R,2S,4R)-4-[(5-{[1-(3-ethynylbenzyl)-1H-pyrazol-3-yl]carbonyl}pyrimidin-4-yl)amino]-2-hydroxycyclopentyl}methyl sulfamate], the pIC50 was > 8.00 and the inhibition at 0.111 µM turned out to be 98%.

For the compound `NS(=O)(=O)OC[C@H]1C[C@@H](Nc2ncncc2C(=O)c2ccn(Cc3ccc(C(F)F)o3)c2)[C@@H](F)[C@@H]1O` [Compound I-87, [(1R,2R,3R,4R)-4-({5-[(1-{[5-(difluoromethyl)-2-furyl]methyl}-1H-pyrrol-3-yl)carbonyl]pyrimidin-4-yl}amino)-3-fluoro-2-hydroxycyclopentyl]methyl sulfamate], the pIC50 is > 8.00 and the inhibition at 0.111 µM was > 99%.

In the case of `NS(=O)(=O)OC[C@H]1C[C@@H](Nc2ncncc2C(=O)c2ccn(Cc3c(F)cc(F)cc3F)n2)[C@H](O)[C@@H]1O` [Compound I-88, {(1R,2R,3S,4R)-2,3-dihydroxy-4-[(5-{[1-(2,4,6-trifluorobenzyl)-1H-pyrazol-3-yl]carbonyl}pyrimidin-4-yl)amino]cyclopentyl}methyl sulfamate], the pIC50 was > 8.00 and the inhibition at 0.111 µM is > 99%.

With `NS(=O)(=O)OC[C@H]1C[C@@H](Nc2ncncc2C(=O)c2ccn(Cc3ccc(F)c(Cl)c3)n2)[C@H](O)[C@@H]1O` [Compound I-89, {(1R,2R,3S,4R)-4-[(5-{[1-(3-chloro-4-fluorobenzyl)-1H-pyrazol-3-yl]carbonyl}pyrimidin-4-yl)amino]-2,3-dihydroxycyclopentyl}methyl sulfamate], the pIC50 was > 8.00 and the inhibition at 0.111 µM is 98%.

In the case of `NS(=O)(=O)OC[C@H]1C[C@@H](Nc2ncncc2C(=O)c2cc(CO)n(Cc3cccc(Br)c3)n2)C[C@@H]1O` [Compound I-90, {(1R,2S,4R)-4-[(5-{[1-(3-Bromobenzyl)-5-(hydroxymethyl)-1H-pyrazol-3-yl]carbonyl}pyrimidin-4-yl)amino]-2-hydroxycyclopentyl}methyl sulfamate], the pIC50 was > 8.00 and the inhibition at 0.111 µM amounted to 98%.

For the compound `NS(=O)(=O)OC[C@H]1C[C@@H](Nc2ncncc2C(=O)c2ccn(Cc3cc(F)ccc3F)n2)[C@H](O)[C@@H]1O` [Compound I-91, {(1R,2R,3S,4R)-4-[(5-{[1-(2,5-difluorobenzyl)-1H-pyrazol-3-yl]carbonyl}pyrimidin-4-yl)amino]-2,3-dihydroxycyclopentyl}methyl sulfamate], the pIC50 was > 8.00 and the inhibition at 0.111 µM amounted to 98%.

As for `NS(=O)(=O)OC[C@H]1C[C@@H](Nc2ncncc2C(=O)c2ccn(Cc3ccc(F)c(Br)c3)n2)[C@@H](F)[C@@H]1O` [Compound I-92, {(1R,2R,3R,4R)-4-[(5-{[1-(3-bromo-4-fluorobenzyl)-1H-pyrazol-3-yl]carbonyl}pyrimidin-4-yl)amino]-3-fluoro-2-hydroxycyclopentyl}methyl sulfamate], the pIC50 is > 8.00 and the inhibition at 0.111 µM was 99%.

For the compound `NS(=O)(=O)OC[C@H]1C[C@@H](Nc2ncncc2C(=O)c2ccn(CC3CCCCC3)n2)C[C@@H]1O` [Compound I-93, {(1R,2S,4R)-4-[(5-{[1-(cyclohexylmethyl)-1H-pyrazol-3-yl]carbonyl}pyrimidin-4-yl)amino]-2-hydroxycyclocarbonyl}methyl sulfamate], the negative logarithm of the IC50 (pIC50) is > 8.00 and the inhibition at 0.111 µM was 90%.

In the case of `NS(=O)(=O)OC[C@H]1C[C@@H](Nc2ncncc2C(=O)c2cc(C(F)(F)F)n(Cc3ccccc3)c2)[C@@H](F)[C@@H]1O` [Compound I-94, {(1R,2R,3R,4R)-4-[(5-{[1-Benzyl-5-(trifluoromethyl)-1H-pyrrol-3-yl]carbonyl}pyrimidin-4-yl)amino]-3-fluoro-2-hydroxycyclopentyl}methyl sulfamate], the negative logarithm of the IC50 (pIC50) was > 8.00 and the inhibition at 0.111 µM came out at 97%.

Turning to `NS(=O)(=O)OC[C@H]1C[C@@H](Nc2ncncc2C(=O)c2ccn(Cc3cccc(Cl)n3)n2)C[C@@H]1O` [Compound I-95, [(1R,2S,4R)-4-{[5-({1-[(6-chloropyridin-2-yl)methyl]-1H-pyrazol-3-yl}carbonyl)pyrimidin-4-yl]amino}-2-hydroxycyclopentyl]methyl sulfamate], the pIC50 was > 8.00 and the inhibition at 0.111 µM is 99%.

In the case of `NS(=O)(=O)OC[C@H]1C[C@@H](Nc2ncncc2C(=O)c2ccn(CC(=O)c3cccc(Br)c3)n2)[C@H](O)[C@@H]1O` [Compound I-96, [(1R,2R,3S,4R)-4-{[5-({1-[2-(3-bromophenyl)-2-oxoethyl]-1H-pyrazol-3-yl}carbonyl)pyrimidin-4-yl]amino}-2,3-dihydroxycyclopentyl]methyl sulfamate], the pIC50 is > 8.00 and the inhibition at 0.111 µM is 98%.

As for `NS(=O)(=O)OC[C@H]1C[C@@H](Nc2ccncc2C(=O)c2ccn(Cc3ccc(F)c(Cl)c3)n2)C[C@@H]1O` [Compound I-97, {(1R,2S,4R)-4-[(3-{[1-(3-Chloro-4-fluorobenzyl)-1H-pyrazol-3-yl]carbonyl}pyridin-4-yl)amino]-2-hydroxycyclopentyl}methyl sulfamate], the pIC50 was > 8.00 and the inhibition at 0.111 µM worked out at 96%.

Regarding `NS(=O)(=O)OC[C@H]1C[C@@H](Nc2ncncc2C(=O)c2ccn(Cc3ccccc3OC(F)(F)F)n2)[C@H](O)[C@@H]1O` [Compound I-98, [(1R,2R,3S,4R)-2,3-dihydroxy-4-{[5-({1-[2-(trifluoromethoxy)benzyl]-1H-pyrazol-3-yl}carbonyl)pyrimidin-4-yl]amino}cyclopentyl]methyl sulfamate], the pIC50 is > 8.00 and the inhibition at 0.111 µM is 96%.

As for `Cc1cc(C(=O)c2cncnc2N[C@@H]2C[C@H](COS(N)(=O)=O)[C@@H](O)C2)nn1Cc1cccc(Cl)n1` [Compound I-99, [(1R,2S,4R)-4-{[5-({1-[(6-chloropyridin-2-yl)methyl]-5-methyl-1H-pyrazol-3-yl}carbonyl)pyrimidin-4-yl]amino}-2-hydroxycyclopentyl]methyl sulfamate], the pIC50 was > 8.00 and the inhibition at 0.111 µM is > 99%.

As to `NS(=O)(=O)OC[C@H]1C[C@@H](Nc2ncncc2C(=O)c2ccn(Cc3ccc(Cl)c(OC(F)(F)F)c3)n2)[C@H](O)[C@@H]1O` [Compound I-100, [(1R,2R,3S,4R)-4-{[5-({1-[4-chloro-3-(trifluoromethoxy)benzyl]-1H-pyrazol-3-yl}carbonyl)pyrimidin-4-yl]amino}-2,3-dihydroxycyclopentyl]methyl sulfamate], the pIC50 was > 8.00 and the inhibition at 0.111 µM was found to be 98%.

As to `Cc1cc(C(=O)c2cncnc2N[C@@H]2C[C@H](COS(N)(=O)=O)[C@@H](O)C2)nn1Cc1ccc(Cl)o1` [Compound I-101, [(1R,2S,4R)-4-{[5-({1-[(5-chloro-2-furyl)methyl]-5-methyl-1H-pyrazol-3-yl}carbonyl)pyrimidin-4-yl]amino}-2-hydroxycyclopentyl]methyl sulfamate], the pIC50 is > 8.00 and the inhibition at 0.111 µM was found to be 100%.

In the case of `NS(=O)(=O)OC[C@H]1C[C@@H](Nc2ncncc2C(=O)c2ccn(Cc3cccc(C(F)(F)F)c3)n2)[C@@H](F)[C@@H]1O` [Compound I-102, [(1R,2R,3R,4R)-3-fluoro-2-hydroxy-4-{[5-({1-[3-(trifluoromethyl)benzyl]-1H-pyrazol-3-yl}carbonyl)pyrimidin-4-yl]amino}cyclopentyl]methyl sulfamate], the negative-log IC50 (pIC50) was > 8.00 and the inhibition at 0.111 µM was found to be 97%.
